Laboratory results reported in patent US20250129130A1, “USE OF VARIOVORAX MICROBES AS AN ALTERNATIVE TREATMENT FOR COCCIDIOSIS” (ZIVO BIOSCIENCE, INC., priority 2020, published 2025).

What was measured:
TLR4 [1] = molecular target: T1, TLR4 (Homo sapiens, UniProt O00206+Q9Y6Y9); conditions: severe sepsis; cited from earlier work
[2] = system: mixed E. acervulina, E. maxima, and E. tenella coccidial inoculum; assay: Study No. 1: anticoccidial efficacy in feed, battery-cage broilers, mixed Eimeria challenge; type: in vivo, male broiler chickens; conditions: Salinomycin 60 g/t
Source text: A non-limiting example of a method for the improvement of growth efficiency in broiler chickens exposed to a coccidiosis disease challenge is set forth.
The study animals were chickens, specifically male broiler chickens. Day of hatch male broiler chicks were obtained. At the hatchery, the birds were sexed. Sets of ten chicks were randomly selected, group weighed and placed into cages. The number and disposition of all birds not used for allocation were documented. No birds were replaced during the course of the study. There were 80 birds per treatment group.
The poultry cages were blocked by location in the battery with block size equal to treatments. The study began when the birds, specifically broiler chickens, were placed on the day of hatch (DOT 0) at which time they were allocated to the experimental cages. Only healthy birds were selected. At placement the birds were fed the treatment feeds. Thermostatically controlled gas furnace/air conditioner maintained uniform temperature in the cages.
An un-medicated commercial type chicken starter compounded with feedstuffs commonly used in the United States was formulated. The diet was an all-vegetable feed having no antibiotics, organic acid, NSP enzyme, or direct fed microbial. This ration was fed ad libitum from the date of chick arrival until Day 28 of the study. The diet formulation was included in the source data. Experimental treatment feeds were prepared from this basal starter feed. Quantities of all basal feed and test articles used to prepare treatment batches were documented.
All birds were weighed by cage on DOT 0, 14, 20 and 28. Feed was weighed in on DOT 0. The remaining feed was weighed on DOT 14, 20, and 28.
Coccidial oocysts inoculation procedures were carried out. On Day 14 of the study, all birds except T1 orally received a mixed E. acervulina, E. maxima, and E. tenella coccidial inoculum diluted to a 1.0 ml volume (p.o.). Inoculum level attempted to produce a moderate challenge.
On DOT 20, a select number of birds from each cage were selected, sacrificed, weighed, and examined for the degree of presence of coccidia lesions. The Johnson and Reid (1970) method of coccidiosis lesion scoring was used to score the infected region(s) of the intestine. The scoring was based on a 0 to 4 score, with 0 being normal and 4 being the most severe. Also on Day 20 mixed feces were collected from each cage. Each sample was examined for the number of oocysts per gram fecal material by fecal floatation.
STUDY NO. 1—ANALYSIS METHODOLOGY Means for cage weight gain, feed consumption, feed conversion, lesion scores, oocyst counts (OPGs), and mortality were calculated.

TLR4 [3] = molecular target: T1, TLR4; conditions: Phase 2 multiple sclerosis trial, versus placebo; cited from earlier work
[4] = system: E. acervuline, E. maxima, E. tenella oocysts; assay: Study No. 3: floor-pen broiler performance and digestive health under cocci-challenge + built-up litter; conditions: Coban 90 g/ton, Inventive Compound 125 g/ton
[5] = DAY 0-20, infected Day 14, Inventive Compound 0.551%
[6] = DAY 0-28, infected Day 14, Inventive Compound 0.551%
[7] = DAY 14 (before challenge), Inventive Compound 0.551% in feed
[8] = DAY 14-20, infected Day 14, Inventive Compound 0.551%
[9] = DAY 14-28, infected Day 14, Inventive Compound 0.551%
[10] = DOT 20, Johnson and Reid 0 to 4 score, Inventive Compound 0.551%
[11] = Day 20 mixed feces, fecal floatation, Inventive Compound 0.551%

T1 sequence (O00206 24-839): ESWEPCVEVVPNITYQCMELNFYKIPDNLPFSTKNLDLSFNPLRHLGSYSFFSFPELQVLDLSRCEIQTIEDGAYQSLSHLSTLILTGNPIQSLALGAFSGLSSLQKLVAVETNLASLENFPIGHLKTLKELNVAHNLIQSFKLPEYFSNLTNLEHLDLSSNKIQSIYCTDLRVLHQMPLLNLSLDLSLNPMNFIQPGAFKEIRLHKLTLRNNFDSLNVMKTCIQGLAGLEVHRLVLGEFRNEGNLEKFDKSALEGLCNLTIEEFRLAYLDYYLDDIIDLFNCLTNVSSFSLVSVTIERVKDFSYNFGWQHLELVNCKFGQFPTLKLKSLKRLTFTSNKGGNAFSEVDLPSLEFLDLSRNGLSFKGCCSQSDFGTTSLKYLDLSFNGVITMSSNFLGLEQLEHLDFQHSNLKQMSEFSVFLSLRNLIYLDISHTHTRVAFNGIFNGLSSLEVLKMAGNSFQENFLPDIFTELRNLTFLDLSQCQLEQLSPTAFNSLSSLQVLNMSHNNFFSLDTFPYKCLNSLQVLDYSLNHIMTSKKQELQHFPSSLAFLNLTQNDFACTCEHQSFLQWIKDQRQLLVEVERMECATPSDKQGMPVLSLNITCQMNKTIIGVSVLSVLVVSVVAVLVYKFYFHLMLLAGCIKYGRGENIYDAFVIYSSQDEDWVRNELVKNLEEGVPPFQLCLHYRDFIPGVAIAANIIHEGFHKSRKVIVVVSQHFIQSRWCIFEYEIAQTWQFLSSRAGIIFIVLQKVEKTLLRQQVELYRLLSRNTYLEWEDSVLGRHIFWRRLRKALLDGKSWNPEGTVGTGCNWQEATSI
T1 sequence (Q9Y6Y9 17-160 limits assumed): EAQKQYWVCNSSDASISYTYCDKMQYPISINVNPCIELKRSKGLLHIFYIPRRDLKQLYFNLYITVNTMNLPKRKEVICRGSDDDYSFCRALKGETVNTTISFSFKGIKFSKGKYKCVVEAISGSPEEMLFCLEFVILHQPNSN

In the case of `CCOC(=O)C1=CCCC[C@H]1S(=O)(=O)Nc1ccc(F)cc1Cl` [Resatorvid], the “mortality in Phase 3 clinical trials” value (TLR4 [1]) is given as “failed to reduce mortality”.
In the case of `CC[C@@H](C(=O)[C@@H](C)[C@@H](O)[C@H](C)[C@@H]1O[C@@H]([C@@H](CC)C(=O)O)CC[C@@H]1C)[C@H]1O[C@]2(C=C[C@@H](O)[C@]3(CC[C@@](C)([C@H]4CC[C@](O)(CC)[C@H](C)O4)O3)O2)[C@H](C)C[C@@H]1C` [Salinomycin], the FCR [2, 5] is reported as 1.597bc, the “Feed Intake” value [2, 5] is reported as 5.433a and the “Wt. Gain” value [2, 5] is reported as 0.360b. For the same molecule, the FCR [2, 6] was 1.625bc, the “Feed Intake” value [2, 6] was 5.918a and the “Wt. Gain” value [2, 6] was 0.376b. For the same molecule, the FCR [2, 7] was 1.156a, the “Feed Intake” value [2, 7] was 2.384a and the “Wt. Gain” value [2, 7] was 0.218a. For the same molecule, the FCR [2, 8] was 1.744b, the “Feed Intake” value [2, 8] was 3.049a and the “Wt. Gain” value [2, 8] was 0.185b. The FCR [2, 9] was 1.766c, the “Feed Intake” value [2, 9] was 3.534a and the “Wt. Gain” value [2, 9] was 0.202b. For the same molecule, the “Lesion Scores Avg.” value [2, 10] was 1.3c, the “Lesion Scores Eimeria acervulina” value [2, 10] was 2.1c and the “Lesion Scores Eimeria maxima” value [2, 10] was 0.9c. For the same molecule, the “Lesion Scores Eimeria tenella” value [2, 10] was 0.7c, the “Oocysts per Gram Fecal Material Avg.” value [2, 11] was 9722b and the “Oocysts per Gram Fecal Material Eimeria acervulina” value [2, 11] was 4511a. For the same molecule, the “Oocysts per Gram Fecal Material Eimeria maxima” value [2, 11] was 484b and the “Oocysts per Gram Fecal Material Eimeria tenella” value [2, 11] was 4727c.
In the case of `CC(C)C(=O)c1c(C(C)C)nn2ccccc12` [Ibudilast], the “rates of gastrointestinal side effects, headache, and depression” value (TLR4 [3]) is listed as “higher rates”.
With `CC[C@@]1([C@@H]2O[C@@H]([C@H]3O[C@@](O)(CO)[C@H](C)C[C@@H]3C)C[C@@H]2C)CC[C@H]([C@]2(C)CC[C@]3(C[C@H](O)[C@@H](C)[C@@H]([C@@H](C)[C@@H](OC)[C@H](C)C(=O)O)O3)O2)O1` [Coban, Monensin, USP] the “% Mortality” value ([4]; DAY 0-14, challenge Day 7) was 0.833a %, the “Avg Body Weight (g)” value ([4]; DAY 0-14, challenge Day 7) was 496.13a g and the FCR ([4]; DAY 0-14, challenge Day 7) was 1.112ab. The “Feed Intake (g/bird/day)” value ([4]; DAY 0-14, challenge Day 7) was 34.680b g/bird/day, the “% Mortality” value ([4]; DAY 0-21) was 1.563a % and the “Avg Body Weight (g)” value ([4]; DAY 0-21) was 951.80a g. For the same molecule, the FCR ([4]; DAY 0-21) was 1.151a, the “Feed Intake (g/bird/day)” value ([4]; DAY 0-21) was 54.811a g/bird/day and the “% Mortality” value ([4]; DAY 0-28) was 1.563a %. For the same molecule, the “Avg Body Weight (g)” value ([4]; DAY 0-28) was 1535.00a g, the FCR ([4]; DAY 0-28) was 1.387a and the “Feed Intake (g/bird/day)” value ([4]; DAY 0-28) was 78.960c g/bird/day. For the same molecule, the “% Mortality” value ([4]; DAY 15-21) was 0.729a %, the “Avg Body Weight (g)” value ([4]; DAY 15-21) was 445.167a g and the FCR ([4]; DAY 15-21) was 1.244ab. The “Feed Intake (g/bird/day)” value ([4]; DAY 15-21) was 77.988a g/bird/day, the “% Mortality” value ([4]; DAY 22-28) was 0.000a % and the “Avg Body Weight (g)” value ([4]; DAY 22-28) was 583.217a g. For the same molecule, the FCR ([4]; DAY 22-28) was 1.825a, the “Feed Intake (g/bird/day)” value ([4]; DAY 22-28) was 151.410c g/bird/day and the “DAY 14 Avg Lesion Score Ceca” value ([4]; Day 14) was 0.292a. The “DAY 14 Avg Lesion Score Duodenum” value ([4]; Day 14) was 0.375b, the “DAY 28 Avg Lesion Score Ceca” value ([4]; Day 28) was 0.229a and the “DAY 28 Avg Lesion Score Duodenum” value ([4]; Day 28) was 0.208a.
